According to PMC3266433 (Antiviral Research, 2011):
Where a name gives a salt, the structure may show the parent alone. Read-outs that look alike come from different tables or passages of the source.

Legend:
DEN2V NS2B-NS3pro [1] = target: T1, DEN2V NS2B-NS3pro (Dengue virus type 2, UniProt P29990); assay: Steady-state kinetics of DEN2V NS2B-NS3pro inhibition; assay type: biochemical, dengue 2 virus; conditions: BOC-GRR-AMC 0 to 1.2 mM
DEN2V NS2B-NS3pro [2] = target: T1, DEN2V NS2B-NS3pro; assay: Single-point DEN2V NS2B-NS3pro inhibition assay to validate hits; assay type: biochemical, dengue 2 virus; conditions: single-point validation assay
WNV NS2B-NS3pro = WNV NS2B-NS3pro (West Nile virus, UniProt Q9Q6P4); assay: Steady-state kinetics of WNV NS2B-NS3pro inhibition; assay type: biochemical
[3] = target: T2, bovine pancreatic trypsin (Bos taurus, UniProt P00760); assay: Single-point trypsin inhibition assay to validate selectivity; assay type: biochemical; conditions: 100 μM compound; BOC-GRR-AMC 30 μM
T2 sequence (P00760 24-246): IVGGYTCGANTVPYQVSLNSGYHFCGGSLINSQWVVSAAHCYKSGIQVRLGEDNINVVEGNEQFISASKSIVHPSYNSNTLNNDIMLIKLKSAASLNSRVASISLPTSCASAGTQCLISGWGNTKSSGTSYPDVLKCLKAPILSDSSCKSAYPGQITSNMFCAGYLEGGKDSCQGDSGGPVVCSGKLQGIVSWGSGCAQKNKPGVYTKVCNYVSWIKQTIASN

cells = conditions: ref Yip et al., 2006; cited from earlier work
[4] = read-out: Ki1, DEN2V NS2B-NS3pro
[5] = read-out: Ki2, DEN2V NS2B-NS3pro

Chain of WNV NS2B-NS3pro (Q9Q6P4 1428-1467): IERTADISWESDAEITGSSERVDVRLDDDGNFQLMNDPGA
Chain of WNV NS2B-NS3pro (Q9Q6P4 1506-1683): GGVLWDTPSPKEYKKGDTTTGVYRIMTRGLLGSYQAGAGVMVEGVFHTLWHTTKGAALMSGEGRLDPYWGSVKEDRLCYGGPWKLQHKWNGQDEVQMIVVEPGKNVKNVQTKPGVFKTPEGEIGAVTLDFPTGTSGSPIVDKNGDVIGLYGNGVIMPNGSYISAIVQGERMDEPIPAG
T1 sequence (P29990 1398-1437): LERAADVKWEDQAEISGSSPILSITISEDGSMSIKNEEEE
T1 sequence (P29990 1476-1653): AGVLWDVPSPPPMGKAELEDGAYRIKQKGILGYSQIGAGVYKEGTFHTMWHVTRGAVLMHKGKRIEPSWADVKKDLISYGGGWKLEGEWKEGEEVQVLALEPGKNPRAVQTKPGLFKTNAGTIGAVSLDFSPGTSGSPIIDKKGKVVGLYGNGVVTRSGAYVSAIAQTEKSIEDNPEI

SMILES | Mechanism (DEN2V NS2B-NS3pro [1]; DEN2V NS2B-NS3pro) | Ki (DEN2V NS2B-NS3pro [1]; [4]) [µM] | Ki (DEN2V NS2B-NS3pro [1]; [5]) [µM] | DEN2V protease inhibition (in words) (DEN2V NS2B-NS3pro [2]) | Mechanism (WNV NS2B-NS3pro; WNV NS2B-NS3pro) | Ki (WNV NS2B-NS3pro; read-out: Ki1, WNV NS2B-NS3pro) [µM] | Ki (WNV NS2B-NS3pro; read-out: Ki2, WNV NS2B-NS3pro) [µM] | trypsin inhibition [3] | Ki (DEN2V NS2B-NS3pro [1]; Ki2, DEN2V NS2B-NS3pro) [µM] | Ki (WNV NS2B-NS3pro; Ki1, WNV NS2B-NS3pro) [µM] | Ki (WNV NS2B-NS3pro; Ki2, WNV NS2B-NS3pro) [µM] | CC50 (cell viability reduced by 50%) (cells)
CC[C@H](C)[C@H]1O[C@]2(CC[C@@H]1C)C[C@@H]1C[C@@H](C/C=C(\C)[C@@H](O[C@H]3C[C@H](OC)[C@@H](O[C@H]4C[C@H](OC)[C@@H](O)[C@H](C)O4)[C@H](C)O3)[C@@H](C)/C=C/C=C3\CO[C@@H]4[C@H](O)C(C)=C[C@@H](C(=O)O1)[C@]34O)O2 [MS21, Ivermectin] | mixed | 79 ± 21 | 35 ± 4 | inhibited DEN2V protease | mixed | 55 ± 18 | 16 ± 4 | did not inhibit trypsin | – | – | – | –
Cc1cc(C(C)(C)CC(C)(C)C)ccc1OCCOCC[N+](C)(C)Cc1ccccc1.[Cl-] [MS22, Methylbenzethonium chloride] | mixed | 322 ± 81 | 160 ± 39 | inhibited DEN2V protease | mixed | 141 ± 20 | 307 ± 80 | did not inhibit trypsin | – | – | – | –
CO[C@H]1C[C@H](O[C@@H]2/C(C)=C/C[C@@H]3C[C@@H](C[C@]4(CC[C@H](C)[C@@H](C5CCCCC5)O4)O3)OC(=O)[C@@H]3C=C(C)/C(=N/O)[C@H]4OC/C(=C\C=C\[C@@H]2C)[C@]43O)O[C@@H](C)[C@@H]1O [MS24, Selamectin] | mixed | – | – | inhibited DEN2V protease | mixed | – | – | did not inhibit trypsin | 45 ± 8 | 15 ± 9 | 28 ± 6 | –
CCCCC(CC)CNC(=N)NC(=N)NCCCCCCNC(=N)NC(=N)NCC(CC)CCCC (stereo not shown) [MS28, Alexidine hydrochloride] | mixed inhibition mechanism | – | – | inhibited DEN2V protease | mixed | – | – | did not inhibit trypsin | 84 ± 16 | 12 ± 1.2 | 28 ± 5 | low micromolar
